Laboratory results published in patent US11279733B2, “Peptide antibiotics” (priority 2017, dated 2022).
≈ marks a conversion by molar mass, not a printed value. Positions of bridges follow the written chain, without caps; N, C: chain ends. Non-standard residues stand in square brackets, D forms with d. Residues, ends and D or L forms follow the SMILES beside them. *: point of attachment. Decanoyl(3R-OH) = CCCCCCC[C@@H](O)CC(=O)*; dDab = NCC[C@@H](N)C(=O)O; Orn = NCCC[C@H](N)C(=O)O; Dab = NCC[C@H](N)C(=O)O

Tests used:
[1] = tested on: S. aureus ATCC 25923, MSSA; conditions: ATCC 25923
In short: (§1)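 Mid-log cultures grown in Mueller Hinton broth at 37° C were tested by 2-fold broth microdilution at 5×10^5 CFU/mL final. Compounds were dissolved in water and tested over a final range of 32 to 0.015 μg/mL.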

A. baumannii GN_093 PmxR = conditions: GN 093 PmxR
In short: as §1

[2] = tested on: P. aeruginosa GN_043, PmxR; conditions: polymyxin-resistant; for MIC, P. aeruginosa FADDI-PA070, PmxR: Table 5
In short: as §1

E. coli ATCC 25922 = conditions: ATCC 25922
In short: as §1

[3] = tested on: K. pneumoniae GN_102 PmxR; conditions: GN 102 PmxR
In short: as §1

[4] = tested on: K. pneumoniae ATCC 700603, MDR; conditions: ATCC 700603
In short: as §1

[5] = tested on: K. pneumoniae ATCC BAA-2146, NDM-1 pos; conditions: ATCC BAA-2146
In short: as §1

[6] = tested on: K. pneumoniae GN_106, PmxR; conditions: GN 106, PmxR
In short: as §1

[7] = tested on: P. aeruginosa GN_105, PmxR; conditions: GN 105, PmxR
In short: as §1

P. aeruginosa ATCC 27853 = conditions: ATCC 27853
In short: as §1

K. pneumoniae ATCC 13883 = conditions: ATCC 13883
In short: as §1

A. baumannii ATCC 19606 = conditions: ATCC 19606
In short: as §1

[8] = In vitro nephrotoxicity, LDH release from primary human kidney cells; type: cell-based; conditions: pH 7.4
From the text: (§2) hPT cells were derived from whole human kidneys procured by the International Institute for the Advancement of Medicine (Edison, N.J., USA). All tissue was scored by a pathologist as normal (i.e., derived from non-cancerous, non-diseased tissue). Cell isolation procedures were based on those originally described by Todd et al. (1996) and modified (Cummings and Lash, 2000; Cummings et al., 2000) with use of sterile conditions (i.e., all instruments and glassware were autoclaved and all buffers were filtered through a 0.2-μm pore-size filter). Renal cortex and outer stripe were cut into slices, washed with sterile PBS, minced, and the pieces were placed in a trypsinization flask filled with 300 ml of sterile, filtered Hanks' buffer, containing 25 mM NaHCO3, 25 mM HEPES, pH 7.4, 0.5 mM EGTA, 0.2% (w/v) bovine serum albumin, 50 μg/ml gentamicin, 1.3 mg/mL collagenase, and 0.59 mg/ml CaCl2), which was filtered prior to use. Whole kidneys were perfused with Wisconsin medium and kept on ice until they arrived at the laboratory, which was usually within 24 h of removal from the donor.
(§3) All buffers were continuously bubbled with 95% O2/5% CO2 and were maintained at 37° C. Minced cortical pieces from whole kidneys were subjected to collagenase digestion for 60 min, after which the supernatant was filtered through a 70-μm mesh filter to remove tissue fragments, centrifuged at 150×g for 7 min, and the pellet resuspended in Dulbecco's Modified Eagle's Medium: Ham's F12 Medium (DMEM/F12; 1/1). Approximately 5 to 7×10^6 cells were obtained per 1 g of human kidney cortical tissue.
(§4) hPT cells were resuspended in 2 mL of DMEM/F12 and diluted to 500 mL with cell culture medium, which was serum-free and hormonally-defined. Composition of this supplemented medium was based on earlier work establishing optimal conditions for primary culture of rat PT cells (Lash et al., 1995). Basal medium was a 1:1 mixture of DMEM/F12. […] Cells were seeded in a volume of 0.5 ml at a density of 50-100 μg protein per cm^2 (0.5-1.0×10^6 cells/ml) on 24-well plates. Cultures were grown at 37° C. in a humidified incubator under an atmosphere of 95% air/5% CO2 at pH 7.4. Cultures were grown to approximately 80%-90% confluence (generally 5-6 days) prior to experiments. Cells were harvested by either scraping the flasks with a Teflon scraper or by brief incubation with Cellstripper (Cellgro, Herndon, Va., USA) (in Ca^2+- and Mg^2+-free Hanks' buffer).

Neisseria gonorrhoeae = assay: MIC determination, Neisseria gonorrhoeae; type: cell-based; conditions: for MIC N. gonorrhoeae F89: strain F89; for MIC N. gonorrhoeae FA19 ATCC BAA-1838: strain FA19 ATCC BAA-1838; for MIC N. gonorrhoeae FA1090 A25 ATCC 700825: strain FA1090 A25 ATCC 700825; for MIC N. gonorrhoeae H041: strain H041
In short: as §1

[9] = In vitro nephrotoxicity, GGT release from primary human kidney cells; type: cell-based; conditions: pH 7.4
From the text: as §2, §3, §4
Release of gamm-glutanyltransferase was assessed according to Orlowski, M., Meister, A. 1963. γ-Glutamyl-p-nitroanilide: A new convenient substrate for determination and study of L- and D-γ-glutamyltranspeptidase activities (Biochim. Biophys. Acta 73: 679-681.)
A 2.5 mM substrate Solution was prepared from 67 mg γ-glutamyl-p-nitroanilide+264 mg glycylglycine in 100 mL of 0.05 M Tris, pH 8.2 (50 mM Tris, pH 8.2: 605 mg Tris/HCl per 100 mL).
For the assay in 96-well plates, 6-μL of sample and 0.3 mL substrate solution were added to each well. The absorbance was measured at 410 nm for the appearance of product, p-nitroanilide (molar extinction=8800 M^−1 cm^−1).

Structure (SMILES)	MIC, S. Aureus ATCC 25923, MSSA [1] [µg/mL]	MIC, A. baumannii Cl Ptyela 10073 4512:2, PmxR (A. baumannii GN_093 PmxR) [µg/mL]	MIC, P. aeruginosa FADDI-PA070, PmxR [2] [µg/mL]	MIC, E. coli ATCC 25922 (E. coli ATCC 25922) [µg/mL]	MIC, K. pneumoniae Cl Koprana 10065 0661:1, PmxR [3] [µg/mL]	MIC, K. pneumoniae ATCC 700603, MDR [4] [µg/mL]	MIC, K. pneumoniae ATCC BAA-2146, NDM-1 pos [5] [µg/mL]	MIC, K. pneumoniae Cl 138-16347-20362, PmxR [6] [µg/mL]	MIC, P. aeruginosa PA9704, PmxR [7] [µg/mL]	MIC, P. aeruginosa ATCC 27853 (P. aeruginosa ATCC 27853) [µg/mL]	MIC, K. pneumoniae ATCC 13883 (K. pneumoniae ATCC 13883) [µg/mL]	MIC, A. baumannii ATCC 19606 (A. baumannii ATCC 19606) [µg/mL]	CC50 [8] [µg/mL]	MIC N. gonorrhoeae F89 (Neisseria gonorrhoeae) [µg/mL]	MIC N. gonorrhoeae FA19 ATCC BAA-1838 (Neisseria gonorrhoeae) [µg/mL]	MIC N. gonorrhoeae FA1090 A25 ATCC 700825 (Neisseria gonorrhoeae) [µg/mL]	MIC N. gonorrhoeae H041 (Neisseria gonorrhoeae) [µg/mL]	CC50 [9] [µg/mL]	further results
CCCCCCC[C@@H](O)CC(=O)N[C@H](CCN)C(=O)N[C@H]1CCNC(=O)[C@H](CC(C)C)NC(=O)[C@H](CCN)NC(=O)[C@H](CCCN)NC(=O)[C@H](CC(C)C)NC(=O)[C@@H](Cc2ccccc2)NC(=O)[C@H](CCN)NC1=O [compound 991, 3(R)OH-nC9CO-D-Dab-cyc[L-Dab-L-Dab-D-Phe-L-Leu-L-Orn-L-Dab-L-Leu]] ({Decanoyl(3R-OH)}-[dDab][Dab][Dab][dF]L[Orn][Dab]L; lactam 2-C)	8 (≈ 7.56 µM)	8 (≈ 7.56 µM)	2 (≈ 1.89 µM)	4 (≈ 3.78 µM)	1 (≈ 0.945 µM)	4 (≈ 3.78 µM)	4 (≈ 3.78 µM)	2 (≈ 1.89 µM)	1 (≈ 0.945 µM)	2 (≈ 1.89 µM)	4 (≈ 3.78 µM)	4 (≈ 3.78 µM)	107 (≈ 101 µM)	1.3 (≈ 1.23 µM)	0.39 (≈ 0.368 µM)	1.56 (≈ 1.47 µM)	2.08 (≈ 1.97 µM)	> 128	–
CCCCCCC[C@@H](O)CC(=O)N[C@H](CCN)C(=O)N[C@H]1CCNC(=O)[C@H](Cc2c[nH]c3ccccc23)NC(=O)[C@H](CCN)NC(=O)[C@H](CCN)NC(=O)[C@H](CC(C)C)NC(=O)[C@@H](Cc2ccccc2)NC(=O)[C@H](CCN)NC1=O [compound 6509, 3(R)OH-nC9CO-D-Dab-cyc[L-Dab-L-Dab-D-Phe-L-Leu-L-Dab-L-Dab-L-Trp]] ({Decanoyl(3R-OH)}-[dDab][Dab][Dab][dF]L[Dab][Dab]W; lactam 2-C)	–	–	–	–	–	–	–	–	–	–	–	–	> 128	1.04 (≈ 0.931 µM)	0.78 (≈ 0.698 µM)	0.65 (≈ 0.582 µM)	1.69 (≈ 1.51 µM)	> 128	MIC S. aureus ATCC 25923, MSSA [1]: 4 µg/mL (≈ 3.58 µM); MIC A. baumannii GN_093 PmxR (A. baumannii GN_093 PmxR): 8 µg/mL (≈ 7.16 µM); MIC P. aeruginosa GN_043, PmxR [2]: 1 µg/mL (≈ 0.895 µM); MIC E. coli ATCC 25922 (E. coli ATCC 25922): 4 µg/mL (≈ 3.58 µM); MIC K. pneumoniae GN_102 PmxR [3]: 4 µg/mL (≈ 3.58 µM); MIC K. pneumoniae ATCC 700603, MDR [4]: 2 µg/mL (≈ 1.79 µM); MIC K. pneumoniae ATCC BAA-2146, NDM-1 pos [5]: 4 µg/mL (≈ 3.58 µM); MIC K. pneumoniae GN_106, PmxR [6]: 4 µg/mL (≈ 3.58 µM); MIC P. aeruginosa GN_105, PmxR [7]: 1 µg/mL (≈ 0.895 µM); MIC P. aeruginosa ATCC 27853 (P. aeruginosa ATCC 27853): 2 µg/mL (≈ 1.79 µM); MIC K. pneumoniae ATCC 13883 (K. pneumoniae ATCC 13883): 4 µg/mL (≈ 3.58 µM); MIC A. baumannii ATCC 19606 (A. baumannii ATCC 19606): 8 µg/mL (≈ 7.16 µM)
CCCCCCC[C@@H](O)CC(=O)N[C@H](CCN)C(=O)N[C@H]1CCNC(=O)[C@H](CC(C)C)NC(=O)[C@H](CCN)NC(=O)[C@H](CCCNC(=N)N)NC(=O)[C@H](CC(C)C)NC(=O)[C@@H](Cc2ccccc2)NC(=O)[C@H](CCN)NC1=O [compound 8733, 3(R)OH-nC9CO-D-Dab-cyc[L-Dab-L-DAB-D-Phe-L-Leu-L-Arg-L-Dab-L-Leu]] ({Decanoyl(3R-OH)}-[dDab][Dab][Dab][dF]LR[Dab]L; lactam 2-C)	8 (≈ 7.27 µM)	8 (≈ 7.27 µM)	2 (≈ 1.82 µM)	2 (≈ 1.82 µM)	2 (≈ 1.82 µM)	2 (≈ 1.82 µM)	4 (≈ 3.63 µM)	2 (≈ 1.82 µM)	2 (≈ 1.82 µM)	2 (≈ 1.82 µM)	2 (≈ 1.82 µM)	4 (≈ 3.63 µM)	> 128	–	0.78 (≈ 0.709 µM)	–	–	> 128	–
